Laboratory results: article PMC6927504, “Screening of House Dust from Chinese Homes for Chemicals with Liver X Receptors Binding Activities and Characterization of Atherosclerotic Activity Using an in Vitro Macrophage Cell Line and ApoE^−/− Mice” (Environmental Health Perspectives, 2019)

Assays:
human LXRα = molecular target: T1, human LXRα (Homo sapiens, UniProt Q13133); experiment: cell-based
T1 construct: expressed in transfected cells; host or cells: Saccharomyces cerevisiae Y187
T1 sequence (Q13133 205-447): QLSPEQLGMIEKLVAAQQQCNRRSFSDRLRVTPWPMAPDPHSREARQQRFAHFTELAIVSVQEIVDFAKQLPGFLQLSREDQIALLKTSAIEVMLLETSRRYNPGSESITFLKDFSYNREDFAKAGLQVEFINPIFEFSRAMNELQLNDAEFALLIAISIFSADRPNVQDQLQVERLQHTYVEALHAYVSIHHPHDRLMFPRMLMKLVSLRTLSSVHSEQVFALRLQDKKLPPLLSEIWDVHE

ApoE−/− mice = experiment: Immunofluorescence staining of aortic root sections (MOMA-2, SMCα-Actin) in ApoE−/− mice; assay type: in vivo, mouse; conditions: 13 weeks
From the text: All experiments related to animals were approved by the institutional animal care and use committee of Peking University and followed the guidelines for animal experiments of the university as well as for experimental animals in China. The biological effect size of the animal experiments was based on the previous paper ([Negro Silva et al. 2017]). C57BL/6 (12 weeks old) and ApoE^−/− mice (12 weeks old) were obtained from the Beijing Vital River Laboratory Animal Technology Company. Mice used in the experiments were acclimated to the housing unit 2 weeks before they were used for experiments, and they were randomly assigned to control or TPHP treatment groups. Five animals were housed to a cage, and mice were acclimatized to the controlled environment (temperature: 22±2°C; relative humidity: 40–60%; artificial lighting: 12 h:12 h light/dark). Mice received diet and drinking water ad libitum. Body weight (BW) was measured every week during the dosing period. Forty-five C57BL/6 mice and 27 ApoE^−/− mice were used in this study. Animal protocol 1: Male C57BL/6 mice (five mice per group) were fed a basic diet (Laboratory Animal Center of the Academy of Military Medical Sciences, China). On Day 0, mice were stimulated with paraffin oil by intraperitoneal injection. From Day 1 to Day 7, mice were exposed to corn oil (control) or TPHP (dissolved in corn oil) at 40 or 200mg/kg BW by daily oral gavage. The volume of the corn oil or TPHP in corn oil administered was 5mL/kg BW. On Day 8, after the mice were anesthetized by sodium pentobarbital via intramuscular injection, peritoneal macrophages were harvested from peritoneal lavage with 4mL pre-warmed DMEM-F12 (containing 10% FBS) using a 25-gauge needle; 5–10 min later, 3–3.5mL peritoneal fluid was collected, and the cells were isolated by centrifuge at 1,000 rpm for 5 min. […] Considering that this study assessed the effects of short-term exposure to TPHP, whereas humans are exposed to TPHP over a lifelong period, the present study used exposure doses that were higher than that of human exposure from house dust. […]

SMILES: O=P(Oc1ccccc1)(Oc1ccccc1)Oc1ccccc1 [TPHP, triphenyl phosphate]
- IC50 (human LXRα): 1480 nM
- Contribution to the LXRα-antagonist activity of SRM2585 (human LXRα; dust standard reference material SRM2585): 33.83%
- Share of the LXRα-antagonist activity of indoor dust explained by the chemical (human LXRα; range over indoor dust samples (Table S4)): 0.19–51.07%
- Macrophage content (MOMA-2) in aortic root lesions, higher than control (ApoE−/− mice; 10 mg/kg BW, p<0.05): 1.9 fold
- Macrophage content (MOMA-2) in aortic root lesions, higher than control (ApoE−/− mice; 40 mg/kg BW, p<0.01): 3.1 fold
- Abundance of SMCs (SMCα-Actin) in the aortic roots versus control (ApoE−/− mice; 10 and 40 mg/kg BW): a significant difference was not found
